Here are results for three compounds from patent US20260327655A1, “SMALL-MOLECULE REGULATED ALTERNATIVE SPLICING” (priority 2023, published 2026).

Structures are written as SMILES.

Test [1] has as its system RS1-10. The experiment in a line: Dose-response profiling assay, RS1-10 Flp-In-293 cell line. The class given is cell-based. Particulars: 18 hours, FIGS. 9D-9F. The protocol:
Single-copy insertion of an switch construct and subsequent cell-line generation was performed in Flp-In-293 cells according to manufacturer's protocols. The RS1-10 sequence fused to a Firefly Luciferase gene was cloned into a Flp-In compatible pcDNA5/FRT expression vector with a CMV promoter and BGH polyadenylation signal. Resulting Flp-In cell line carried a single-copy expression cassette (RSwitch-controlled) integrated into the genome. The RS1-10 Flp-In cell line was cultured in DMEM+10% FBS, collected after trypsinization, and then dispensed into 96-well plates (cell culture-treated). Each well of the plate was seeded with 1.0×10^5 cells in 100 μL culture medium. Subsequently, either DMSO vehicle or a splice modulator compound at specified doses was added to the wells of the plate. Triplicate wells were used for each condition tested in the experiment. Plates were then incubated for 18 hours in a tissue culture incubator (5% CO2, 37° C.). Endpoint analysis was performed by adding 100 uL of a Luciferase substrate, such as Steady-Luc Firefly Luciferase substrate, to each well of the assay plate. The liquid contents of each was transferred to a 96-well plate, mixed again for 2 min on an orbital shaker, and incubated at room temperature for 5 min. Finally, the luminescent signal from each well was measured with a plate reader. Each plotted data point on a graph in a figure represents a mean of 3 wells+/−standard deviation normalized to vehicle controls. A nonlinear regression curve fit of the plotted data points was generated in graphing software.

The test system of test [2] is RS1-10 minigene (Firefly Luciferase), HEK-293T cells. The experiment in a line: Luciferase induction assay, RS1-10 with splice modulator compounds in HEK-293T cells. The class given is cell-based. Particulars: Homo sapiens, 18 hours, n of 3, read-out: Mean fold-induction of luciferase (relative to vehicle control). As to the method: (§1) HEK-293T cells were cultured in DMEM+10% FBS, collected after trypsinization, and then dispensed into 96-well plates (cell culture-treated). Each well of the plate was seeded with 1.0×10^5 cells in 100 μL culture medium. After a 1-hour incubation in a tissue culture incubator (5% CO2, 37 degrees C.), plasmid DNA was complexed with a transfection reagent, such as Lipofectamine 3000, and added to respective wells on the plate. Each well received an equivalent of 100 ng of plasmid DNA complexed with 0.15 μL Lipofectamine. Triplicate wells were used for each condition tested in the experiment. The plasmid utilized in the experiment encoded a CMV promoter upstream of the RS I-10 variant that controlled the expression of a Firefly Luciferase gene followed by a SV40 polyadenylation signal. After a 10-minute incubation at room temperature, either DMSO vehicle or specified compound at specified dose was added to the wells of the plate. Plates were then incubated for 18 hours in a tissue culture incubator. Endpoint analysis was performed by adding 100 uL Steady-Luc Firefly Luciferase substrate to each well of the assay plate. After mixing, the liquid contents of each was transferred to a 96-well plate, mixed again for 2 min on an orbital shaker, and incubated at room temperature for 5 min. Finally, the luminescent signal from each well was measured with a with PerkinElmer Envision plate reader. The results of this assay show RS1-10 responded to the majority of the splice modulator compounds used in a dose responsive manner (FIG. 9C). Bars represent mean+/−standard deviation of 3 wells normalized to vehicle controls.

Test [3] has as its system RS2-3 minigene (Firefly Luciferase), HEK-293T cells. Kind of test: Luciferase induction assay, RS2-3 with splice modulator compounds in HEK-293T cells. Format: cell-based. To be noted: Homo sapiens, 18 hours, n of 3, read-out: Mean fold-induction of luciferase (relative to vehicle control). The protocol:
as §1, with “RS2-3” for “RS I-10”, “RS2-3” for “RS1-10”, “used” for “used in a dose responsive manner”, “13C)” for “9C).”

Test [4] concerns RS3-13 minigene (Firefly Luciferase), HEK-293T cells. Kind of test: Luciferase induction assay, RS3-13 with splice modulator compounds in HEK-293T cells. Format: cell-based. To be noted: Homo sapiens, 18 hours, n of 3, read-out: Mean fold-induction of luciferase (relative to vehicle control). The protocol: as §1, with “RS3-13” for “the RS I-10 variant”, “RS3-13” for “RS1-10”, “used” for “used in a dose responsive manner”, “14D)” for “9C).”

Test [5] concerns RS3-1 and variants. The experiment in a line: Luciferase induction assay, RS3-1 and variants in HEK-293T cells. Particulars: 18 hours. Format: cell-based, human. As to the method:
(§2) HEK-293T cells were cultured in DMEM+10% FBS, collected after trypsinization, and dispensed into 96-well plates (cell culture-treated). Each well of the plate was seeded with 1.0×10^5 cells in 100 μL culture medium. After a 1-hour incubation in the tissue culture incubator (5% CO2, 37° C.), plasmid DNA was complexed with a transfection reagent, such as Lipofectamine 3000, and added to respective wells on the plate. Each well received 100 ng of plasmid DNA complexed with 0.15 μL Lipofectamine 3000. The plasmids utilized in the experiment encoded a CMV promoter upstream of the RS3-1 construct and variants that controlled the expression of a Firefly Luciferase gene followed by a SV40 polyadenylation signal. After a 10-minute incubation at room temperature, either DMSO vehicle or 116B at specified doses was added to the wells of the plate. Plates were then incubated for 18 hours in a tissue culture incubator. Endpoint analysis was performed by adding 100 μL of a Luciferase substrate, such as Steady-Luc Firefly Luciferase substrate, to each well of the assay plate. The liquid contents of each was transferred to a 96-well plate, mixed again for 2 min on an orbital shaker, and incubated at room temperature for 5 min. Finally, the luminescent signal from each well was measured with a plate reader. […]

Test [6] relates to RS4-1 and variants. Kind of test: Luciferase induction assay, RS4-1 and variants in HEK-293T cells. The class given is cell-based, human. To be noted: 18 hours, FIGS. 15A, 15B. The protocol:
as §2, with “of the RS4-1 construct and” for “of the RS3-1 construct and”, “vehicle or 24 A at specified” for “vehicle or 116B at specified”, “adding 100 uL of a” for “adding 100 μL of a”

As to `Cn1cc2cc(-c3ccc(-c4ccc(C5CN(C6CCOCC6)C5)nn4)c(O)c3)ccc2n1` [22 A, 5-(2-methyl-2H-indazol-5-yl)-2-{6-[1-(oxan-4-yl)azetidin-3-yl]pyridazin-3-yl}phenol], the “fold-induction of luciferase signal, dose response” value in test [1] is “increase in fold-induction of luciferase signal with increasing concentrations”.

For `CCN1CC(c2ccc(-c3ccc(-c4cc(C)c5nn(C)cc5c4)cc3O)nn2)C1` [34 A, 5-(2,7-dimethyl-2H-indazol-5-yl)-2-[6-(1-ethylazetidin-3-yl)pyridazin-3-yl]phenol], in test [1], the “fold-induction of luciferase signal, dose response” value was “increase in fold-induction of luciferase signal with increasing concentrations”.

For the compound `Cc1cn2cc(-c3nc(=O)n4cc(N5CCN[C@@H](C)C5)cc(F)c4n3)cc(F)c2n1` [Compound 116B, (S)-9-fluoro-2-(8-fluoro-2-methylimidazo[1,2-a]pyridine-6-yl)-7-(3-methylpiperazin-1-yl)-4H-pyrido[1,2-a][1,3,5]triazin-4-one], the fold induction at 0.1 µM turned out to be 71.8 in test [2] (RS1-10, 100 nM); 19.8 in test [3] (RS2-3, 100 nM); 33.4 in test [4] (RS3-13, 100 nM). The fold induction at 1 µM is 96.6 in test [2] (RS1-10, 1,000 nM); 39.9 in test [3] (RS2-3, 1,000 nM); 64.6 in test [4] (RS3-13, 1,000 nM). Further, the “fold induction of luciferase compared to vehicle, constructs vs RS3-1” value in test [5] (100 nM (FIGS. 14A, 14B), 200 nM or 600 nM (FIG. 14C)) is on record as “Some of the constructs show higher fold induction of luciferase in the presence of 116B compared to vehicle than RS3-1”. For the same compound, the “fold induction of luciferase, concentration dependence” value in test [5] (RS3-1 variants, 200 nM and 600 nM (FIG. 14C)) is recorded as “higher fold induction of luciferase with higher concentrations of 116B”. In addition, the fold-induction of luciferase result in test [6] was “increasing fold-induction of luciferase with increasing concentrations”.
